Data from patent publication US6790470B1, “Aspartame derivative crystal and process for producing the same” (Ajinomoto Co., Inc., priority 1998, dated 2004).

Legend:
[1] = weight ratio, cited from earlier work
[2] = Inherent dissolution rate of tabletted dried crystals in ion exchanged water (Test Example 1); assay type: physicochemical; conditions: for amount of crystals dissolved: 300 mg tablet, 300 ml ion exchanged water, 20° C., 200 rpm
Protocol: Measurement of the Dissolution Rate for the Dried Crystals The dissolution rates of the A-type crystals (Reference Example 2(b)) and the C-type crystals (Example 1) were determined in the following method. That is, 300 mg each of the crystals were introduced into a tabletting mortar (tablet machine) with an internal diameter of 8 mm and a depth of 12 mm, and tabletted at 300 kg/cm2G with “High Pressure Jack J-1 type” (manufactured by Iuchi Seieido) to prepare a sample for measurement of dissolution rate. For measurement of the dissolution rate, the tabletting mortar with only the tabletting face exposed was introduced into 300 ml ion exchanged water kept at 20° C. at a stirring in the number of revolution of 200 rpm, and the inherent dissolution rate was determined using “DISSOLUTION TESTER” (NTR-6100) (manufactured by Toyama Sangyo K. K.).

[3] = Dissolution time, Japanese Pharmacopoeia Paddle method (Test Example 2); assay type: physicochemical; conditions: 0.5 g sample in 900 ml water (20° C.), 100 rpm, end point visually confirmed
Protocol: Measurement of the Dissolution Rates of the C-type Crystals (Original Powder) and Granules Thereof 0.5 g of the sample was introduced into 900 ml water (20° C.) in a 1-L elution tester (the Japanese Pharmacopoeia, Paddle method, 100 rpm) and its dissolution time was measured (end point was visually confirmed). That is, the C-type crystals (original powder with an average particle size of about 50 μm) obtained in Example 1 above and the granules (particle size of 100 to 500 μm and 500 to 1,400 μm) of C-type crystals obtained in Example 2 above were examined for measurements of their dissolution times in the same manner as described above.

| SMILES | efficacy of sweetness relative to Aspartame ([1]; versus Aspartame) | efficacy of sweetness relative to sucrose ([1]; versus sucrose (table sugar)) | amount of crystals dissolved ([2]; 30 minutes) [mg] | amount of crystals dissolved ([2]; 60 minutes) [mg] | amount of crystals dissolved ([2]; 120 minutes) [mg] | dissolution rate as compared with the A-type crystals ([2]; comparison with A-type crystals) | dissolution time [3] [min] |
| --- | --- | --- | --- | --- | --- | --- | --- |
| COC(=O)[C@H](Cc1ccccc1)NC(=O)[C@H](CC(=O)O)NCCC(C)(C)C [N-(3,3-dimethylbutyl)-APM, N-[N-(3,3-dimethylbutyl)-L-α-aspartyl]-L-phenylalanine methyl ester] | at least 50 times | about 10,000 times | – | – | – | – | – |
| COC(=O)[C@H](Cc1ccccc1)NC(=O)[C@H](CC(=O)O)NCCC(C)(C)C [C-type crystals, N-[N-(3,3-dimethylbutyl)-L-α-aspartyl]-L-phenylalanine methyl ester] | – | – | 25 | 42 | 86 | significantly improved dissolution rate | 55 |
| COC(=O)[C@H](Cc1ccccc1)NC(=O)[C@H](CC(=O)O)NCCC(C)(C)C [A-type crystals, N-[N-(3,3-dimethylbutyl)-L-α-aspartyl]-L-phenylalanine methyl ester, reference compound] | – | – | 17 | 34 | 69 | – | – |
